# In patent US20110217337A1, “BIOACTIVE AGENT FOR BONE TISSUE ENGINEERING” (UNIVERSITY OF CONNECTICUT, priority 2010, published 2011):
# Key:
# MC3T3-E1 cells [1] = assay: Trypan blue viability assay; type: cell-based; conditions: 100 micromolar, days 7, 14 and 21
# Protocol: FIG. 7. MC3T3-E1 cell viability of cells treated with 6-Bnz-cAMP compared to untreated cells. Cell viability was measured by trypan blue viability stain.
# Viability: Cell viability is determined using a trypan blue viability assay. For trypan blue viability assay method, at day 7, 14, and 21, cells were collected by trypsinization and stained with trypan blue dye (MP Biochemicals LLC, Solon, Ohio). The cells were then numbered in a hemacytometer (Hausser Scientific, Horsham, Pa.) under a light microscopy (Olympus Corporation, Tokyo, Japan). Cell stained blue was scored a dead cell, while unstained cell was scored a live cell. The results are presented in % of viability.
# (§1) MC3T3-E1 cells were grown in mineralization media. 6-Bnz-cAMP was added to the culture medium to a final concentration of 100 μM for experiments; mineralization media only was used for positive controls. Osteoblast-associated markers were quantitated at days 7 and 14. Markers include increased alkaline phosphatas (ALP) activity (FIG. 5) and calcium precipitation in MC3T3-E1 cells (FIG. 6). 6-Bnz-cAMP toxicity was assessed at days 7, 14, and 21 in cells treated with 100 micromolar 6-Bnz-cAMP compared to untreated cells. Trypan blue staining was used to visualize cells (FIG. 7).
# MC3T3-E1 cells [2] = assay: ALP activity assay; type: cell-based; conditions: 100 μM
# Protocol: FIG. 5. 6-Bnz-cAMP increases ALP activities at day 7 and 14. […] To facilitate the comparison of different experimental settings, the ALP activity of the cells cultured in the regular growth medium at Day 7 was set to one relative unit.
# as §1
# ALP activities were measured using ALP assay kit according to the manufacturer's instructions (Bio-Rad, Hercules, Calif.). Briefly, at day 7 and 14, cells were collected and washed 4 times with PBS prior to the ALP activity assay. Cells were then lysed with 0.1% TX-100. Cell lysates were collected and mixed with the ALP substrate solution for 1 h at 37° C. incubation. The colorimetric change due to the presence of ALP activity was measured by a spectrophotometric plate reader at 405 nm. The absorbance values were then normalized to cellular DNA.
# [3] = system: rat mesenchymal stem cells; assay: Proliferation of mesenchymal stem cells seeded on PLAGA scaffolds, PicoGreen dsDNA assay; type: cell-based; conditions: each time point, day 7 to day 21
# Protocol: FIG. 8. Effect of 6-Bnz-cAMP on the proliferation of rat mesenchymal stem cells seeded on PLAGA scaffolds. Cell proliferation was assessed by PicoGreen dsDNA assay.
# Evaluation of the in vitro cellular behaviors of rabbit MSC on the 6-Bnz-cAMP loaded PLAGA microsphere based scaffold: For in vitro studies, cells are plated onto the 6-Bnz-cAMP loaded and unloaded control scaffolds. Cell adhesion is determined at 1, 3, 6 and 24 hours. Cell proliferation levels are determined at Day 3, 7, and 14 (FIG. 8). Cell differentiation and mineralization are determined at Day 7, 14, 21, and 28. At the pre-determined times, scaffolds will be removed from the medium and unattached cells are removed by washing with PBS 4 times. The in vitro assays are performed on the attached cells according to the procedures described above in Example 3.
# [4] = system: rat mesenchymal stem cells; assay: Quantitative calcium levels in mesenchymal stem cells; type: cell-based; conditions: vs control untreated cells and cells supplemented with BMP-2 peptide
# Protocol: FIG. 9. Quantitative calcium levels determined in untreated (control) rat mesenchymal stem cells and cells treated with BMP-2 or 6-Bnz-cAMP. Keys: D-BMP-2 peptide; E-6-Bnz-cAMP; F-Control.
# Cell adhesion, proliferation, and differentiation studies: Rabbit MSCs are plated onto PLAGA matrices at a plating density of 1×10^4 cells/cm^2 and cultured in standard basal medium. Four experimental groups are tested: (1) untreated cells, (2) 6-Bnz-cAMP treated cells, (3) BMP-2 treated cells, and (4) 6-Bnz-cAMP and BMP-2 treated cells. […] Initial cell adhesion is determined at 1 h, 3 h, 12 h, and 24 h. Cell proliferation and cell differentiation are determined at 1, 7, 14, and 21 days. Calcium deposition and ALP activity is also measured at days 3, 7, 14, and 21 in untreated cells compared to cells treated with BMP-2 or 6-Bnz-cAMP (FIGS. 9 and 10). […] For the cell adhesion assay, attached cells are quantified by crystal violet stain, a method routinely used to measure the initial cell adhesion. Cell proliferation is measured using a commercially available proliferation assay kit, MTS (Promega). For alkaline phosphatase (ALP) activity, the early markers of osteoblast differentiation are determined with a commercially availia ALP assay kit (Bio-rad). […] PCR amplification will be carried out and the resulting products will be analyzed by DNA gel electrophoresis and sequencing. […]
# Epac-Rap1 pathway = conditions: unlike cAMP; cited from earlier work
# phophodiesterase = conditions: cited from earlier work
smiles,measurement,setting,value
"O=C(Nc1ncnc2c1ncn2C1O[C@@H]2COP(=O)([O-])O[C@H]2[C@H]1O)c1ccccc1.[Na+] (stereo partly shown) [6-Bnz-cAMP, N^6-Benzoyladenosine-3′,5′-cyclic monophosphate]",cell viability vs untreated cells,MC3T3-E1 cells [1],No significant differences
same,ALP activity,MC3T3-E1 cells [2]; day 7,induced
same,ALP activity,MC3T3-E1 cells [2]; day 14,further increased
same,cell proliferation vs untreated control,[3],No significant differences
same,calcium deposition,[4],further enhanced calcium deposition
same,activation of the Epac-Rap1 pathway,Epac-Rap1 pathway,does not activate
same,hydrolysis by phophodiesterase,phophodiesterase,resistant to hydrolysis
